# Source: patent US8268807B2, “Compositions and method for the treatment of multiple myeloma” (SRI International, priority 2010, dated 2012)
# Where two headings read alike, the source gives them in different places.
# Key:
# [1] = system: RPMI-8226 multiple myeloma cells; assay: Proliferation of RPMI-8226 multiple myeloma cells; format: cell-based, human; details: read-out: IC50 against RPMI-8226 proliferation
# Procedure: Growth inhibition assay was performed to assess the effect of Compound (1) and antiestrogens on growth of RPMI-8226 (multiple myeloma) cells. Cells were seeded in 96-well plates at 2000 cells/well in 200 μL of medium. After 24 hours, test compounds were added to each well and control wells received vehicle only. On Day 3, viable cells were measured with the MTT assay, using an MTT kit.
# The effect of Compound (1) and analogs thereof on proliferation of RPMI-8226 multiple myeloma cells was determined by standard methods.
# ER-α = target: T1, ER-α (Homo sapiens, UniProt P03372); assay: Estrogen receptor binding assay (3H-estradiol displacement), ER-α; details: recombinant estrogen receptor, 10 nM 3H-estradiol, 4° C. overnight; read-out: Binding Affinity (IC50) ER-α
# T1 sequence (P03372 1-595): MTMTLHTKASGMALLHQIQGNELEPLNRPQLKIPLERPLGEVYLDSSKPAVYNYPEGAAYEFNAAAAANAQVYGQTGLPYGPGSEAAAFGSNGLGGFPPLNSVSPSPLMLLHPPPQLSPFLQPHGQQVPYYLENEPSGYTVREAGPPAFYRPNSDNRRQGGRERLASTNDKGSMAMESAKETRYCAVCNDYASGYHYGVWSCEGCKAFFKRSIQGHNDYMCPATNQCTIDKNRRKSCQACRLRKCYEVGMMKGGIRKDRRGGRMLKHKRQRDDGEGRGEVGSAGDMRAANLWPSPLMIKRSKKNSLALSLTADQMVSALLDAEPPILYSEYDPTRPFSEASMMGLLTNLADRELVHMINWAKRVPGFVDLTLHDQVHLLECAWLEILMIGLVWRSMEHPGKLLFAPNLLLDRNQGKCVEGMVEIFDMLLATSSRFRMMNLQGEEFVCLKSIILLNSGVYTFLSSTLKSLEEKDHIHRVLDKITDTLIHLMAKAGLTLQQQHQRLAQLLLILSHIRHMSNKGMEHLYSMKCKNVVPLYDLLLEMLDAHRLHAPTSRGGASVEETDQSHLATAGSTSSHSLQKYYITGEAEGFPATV
# ER-β = ER-β (Homo sapiens, UniProt Q92731); assay: Estrogen receptor binding assay (3H-estradiol displacement), ER-β; details: recombinant estrogen receptor, 10 nM 3H-estradiol, 4° C. overnight; read-out: Binding Affinity (IC50) ER-β
# Sequence of ER-β (Q92731 whole entry, species assumed): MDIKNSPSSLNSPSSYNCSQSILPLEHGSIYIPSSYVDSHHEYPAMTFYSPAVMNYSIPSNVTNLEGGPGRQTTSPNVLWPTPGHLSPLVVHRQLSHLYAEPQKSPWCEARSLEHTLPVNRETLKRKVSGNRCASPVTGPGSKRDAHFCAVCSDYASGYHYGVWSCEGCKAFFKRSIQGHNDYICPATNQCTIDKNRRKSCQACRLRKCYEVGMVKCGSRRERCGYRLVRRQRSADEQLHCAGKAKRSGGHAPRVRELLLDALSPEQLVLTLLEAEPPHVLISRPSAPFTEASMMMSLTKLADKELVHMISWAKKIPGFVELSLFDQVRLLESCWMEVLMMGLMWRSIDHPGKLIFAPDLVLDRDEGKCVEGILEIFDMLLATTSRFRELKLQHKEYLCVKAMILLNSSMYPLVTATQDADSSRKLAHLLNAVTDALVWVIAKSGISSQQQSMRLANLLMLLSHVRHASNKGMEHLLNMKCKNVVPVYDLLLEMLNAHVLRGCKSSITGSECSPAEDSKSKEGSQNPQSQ
# [2] = Activity test of salts of Compound (1) (test not specified)
Structure (SMILES),IC50 ([1]; Homo sapiens) [µM],also measured
C[C@@H]1Cc2cc(O)ccc2C2CC[C@]3(C)/C(=C/COCCN4CCCC4)CCC3C21 (stereo partly drawn),6.9,–
C[C@@H]1Cc2cc(O)ccc2[C@H]2CC[C@]3(C)/C(=C/COCCN4CCCCC4)CC[C@H]3[C@H]12,15,–
C[C@@H]1Cc2cc(O)ccc2[C@H]2CC[C@]3(C)/C(=C/COC[C@@H](C)N(C)C)CC[C@H]3[C@H]12,9.2,–
C[C@@H]1Cc2cc(O)ccc2[C@H]2CC[C@]3(C)/C(=C/COCCNC4CC4)CC[C@H]3[C@H]12,10.2,–
C[C@@H]1Cc2cc(O)ccc2[C@H]2CC[C@]3(C)/C(=C/COCCN(C)C)CC[C@H]3[C@H]12 [Compound (1)],0.8,IC50 (ER-α): 1.56 ± 0.42 nM; IC50 (ER-β): 86.7 ± 13.3 nM
"C[C@]12CC[C@@H]3c4ccc(O)cc4C[C@@H](CCCCCCCCC[S+]([O-])CCCC(F)(F)C(F)(F)F)[C@H]3[C@@H]1CC[C@@H]2O (stereo partly drawn) [ICI-182780, reference compound]",> 20,–
"CC/C(=C(\c1ccc(O)cc1)c1ccc(OCCN(C)C)cc1)c1ccccc1 [OH-Tamoxifen, reference compound]",–,IC50 [1]: > 20 µM
"O=C(c1ccc(OCCN2CCCCC2)cc1)c1c(-c2ccc(O)cc2)sc2cc(O)ccc12 [Raloxifene, reference compound]",> 20,–
CN(C)CCOCC=C1CCC2C3CCc4cc(O)ccc4C3CCC12C.Cl (stereo not drawn) [chloride salt],–,Activity of salt (data not provided) [2]: found to have activity
CN(C)CCOCC=C1CCC2C3CCc4cc(O)ccc4C3CCC12C.O=C(O)C=CC(=O)O (stereo not drawn) [fumerate salt],–,Activity of salt (data not provided) [2]: found to have activity
